Experimental findings from ChEMBL document CHEMBL1157971, “Euphoportlandols A and B, tetracylic diterpene polyesters from Euphorbia portlandica and their anti-MDR effects in cancer cells” (J Nat Prod, 2006) are described below.

Common to all, as to type: cell-based
The target of series [1] is T1, ATP-dependent translocase ABCB1 (Homo sapiens, UniProt P08183). Nature of the series: Inhibition of human MDR1-mediated rhodamine efflux in mouse L5178 cells assessed as fluorescence activity ratio at 4 ug/mL by flow cytometry relative to untreated control. A general note: A flow cytometer gives signals particle by particle.
Series [2] deals with T1, ATP-dependent translocase ABCB1. Nature of the series: Inhibition of human MDR1-mediated rhodamine efflux in mouse L5178 cells assessed as mean fluorescence intensity at 40 ug/mL by flow cytometry.
Series [3] has the same target. Nature of the series: Inhibition of human MDR1-mediated rhodamine efflux in mouse L5178 cells assessed as mean fluorescence intensity at 4 ug/mL by flow cytometry.
Series [4] has the same target. In words: Inhibition of human MDR1-mediated rhodamine efflux in mouse L5178 cells assessed as fluorescence activity ratio at 40 ug/mL by flow cytometry relative to untreated control.

T1 sequence (P08183 whole entry): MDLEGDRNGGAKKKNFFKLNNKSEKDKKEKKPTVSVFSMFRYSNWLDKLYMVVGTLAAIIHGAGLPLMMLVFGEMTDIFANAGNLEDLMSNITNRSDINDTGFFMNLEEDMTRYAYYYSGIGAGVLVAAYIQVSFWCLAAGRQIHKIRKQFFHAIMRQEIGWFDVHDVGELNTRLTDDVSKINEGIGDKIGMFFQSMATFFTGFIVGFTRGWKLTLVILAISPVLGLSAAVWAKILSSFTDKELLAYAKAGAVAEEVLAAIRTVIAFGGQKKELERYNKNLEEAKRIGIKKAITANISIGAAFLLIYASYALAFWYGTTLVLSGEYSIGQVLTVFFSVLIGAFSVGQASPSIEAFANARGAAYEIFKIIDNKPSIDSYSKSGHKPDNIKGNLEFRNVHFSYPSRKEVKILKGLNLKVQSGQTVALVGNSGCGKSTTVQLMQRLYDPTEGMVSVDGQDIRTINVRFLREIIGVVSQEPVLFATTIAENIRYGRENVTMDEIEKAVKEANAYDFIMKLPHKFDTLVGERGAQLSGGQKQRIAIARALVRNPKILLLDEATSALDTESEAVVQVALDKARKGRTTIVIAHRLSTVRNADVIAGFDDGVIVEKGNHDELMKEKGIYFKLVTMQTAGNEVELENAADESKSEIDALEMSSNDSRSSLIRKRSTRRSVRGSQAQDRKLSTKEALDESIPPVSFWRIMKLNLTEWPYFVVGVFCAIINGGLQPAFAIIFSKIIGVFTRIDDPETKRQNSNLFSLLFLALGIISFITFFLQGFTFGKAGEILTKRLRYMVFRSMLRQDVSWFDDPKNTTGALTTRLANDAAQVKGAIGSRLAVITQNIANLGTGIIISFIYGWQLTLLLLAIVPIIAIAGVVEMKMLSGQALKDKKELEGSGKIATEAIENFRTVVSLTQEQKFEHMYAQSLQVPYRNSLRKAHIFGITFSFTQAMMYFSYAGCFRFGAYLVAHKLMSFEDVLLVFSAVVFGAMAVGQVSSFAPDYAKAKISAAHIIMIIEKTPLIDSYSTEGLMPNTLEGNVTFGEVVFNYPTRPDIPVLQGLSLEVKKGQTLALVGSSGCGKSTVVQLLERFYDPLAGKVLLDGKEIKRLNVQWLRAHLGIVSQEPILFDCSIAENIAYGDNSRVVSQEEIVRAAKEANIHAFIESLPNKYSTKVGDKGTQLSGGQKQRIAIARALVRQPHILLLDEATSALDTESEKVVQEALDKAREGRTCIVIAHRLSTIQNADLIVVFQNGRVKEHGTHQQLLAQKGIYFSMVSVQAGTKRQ

On to `CC(=O)OC1[C@]2(O)CC3=C([C@H](OC(C)=O)C(C)(C)C3=O)[C@@]1(C)[C@@H](OC(C)=O)[C@@]1(O)C[C@H](C)[C@H](OC(=O)c3ccccc3)[C@@H]1[C@H]2OC(C)=O` (stereo partly drawn) [EUPHOPORTLANDOL A], for which the Ratio in series [1] is reported as 2.3; in series [4], 40.3. Also, the Flu intensity in series [2] came to 880.2; in series [3], 49.8.

In the case of `CC(=O)OC1[C@@]2(C)[C@@H]3[C@@H](C[C@]1(O)[C@H](OC(C)=O)[C@H]1[C@@H](OC(=O)c4ccccc4)[C@@H](C)C[C@]1(O)[C@@H]2OC(C)=O)C(=O)C(C)(C)[C@H]3OC(C)=O` (stereo partly drawn) [EUPHOPORTLANDOL B], the values for the Ratio in series [1] and in series [4] were 1.4 and 30.7, respectively. The Flu intensity in series [2] stood at 670.5; in series [3], 30.8.
